The nature of the data set: gradient 5% acetonitrile 3 min, to 50% in 2 min, to 85% in 15 min, held 3 min, 100 µL/min. The settings on record: column: Zorbax Extend-C18 2.1 x 50 mm; eluents: water / acetonitrile, 0.1% formic acid. A digest of the protocol:
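Standards, all pure, were combined into mixtures of ~100 molecules and run at 100 μL/min on a Zorbax Extend-C18 column (2.1 × 50 mm, 1.8 μm) with water and acetonitrile, each containing 0.1% formic acid. A coupled quadrupole time-of-flight mass spectrometer operated in positive and negative ionization mode. Retention time values come from computationally picked adduct peaks, each inspected manually.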
`CC(C)Cc1cc(-c2nn3c(-c4cccc(Cl)c4)nnc3s2)n[nH]1` showed an RP-LC retention time of 1080 s. The molecule `CCOC(=O)c1cc(S(=O)(=O)N2CCCC2C(=O)Nc2cccc(Br)c2)cn1C` (stereo not drawn) returned an RP-LC retention time of 1010 s. For `COc1cccc(-n2c(=O)c(C(=O)Nc3cccc(F)c3)c(O)c3cccnc32)c1` the value was 1250 s; for `CCC(C)NC(=O)c1n[nH]c2c1CCCCCC2` (stereo not drawn), 850 s. For `Cc1noc(-c2ccc(-n3ncc(C(=O)NCCC(C)C)c3C)nc2)n1` the value was 943 s; for `COc1ccccc1-c1csc(NC(=O)c2sc(COc3cccc(C)c3)nc2C)n1`, 1250 s; for `COc1ccc(C)cc1NC(=O)c1cc(C)n2nc(C)cc2n1`, 1040 s. As for `CCN1CCC(N(Cc2ccc3c(c2)OCO3)C(=O)Nc2cccc(C)c2)CC1`, the RP-LC retention time worked out at 691 s. `Cc1ccc(CNC(=O)C2(C)Cn3nc(C(=O)N4CCOCC4)cc3C(=O)N2C)cc1` (stereo not drawn) yielded an RP-LC retention time of 662 s. For `COc1ccccc1OCCNC(=O)Cn1nc2c(cc1=O)CCCC2` the value was 704 s; for `CCOCC(=O)N1CCN(S(=O)(=O)c2c(C)nn(C(C)C)c2C)CC1`, 702 s. For `CC1CCN(C(=O)CN2c3ccc(F)cc3-c3ccccc3S2(=O)=O)CC1`, the RP-LC retention time was determined as 982 s.

On to `OCCN(Cc1ccccc1)CC(O)COc1cccc2ccccc12` (stereo not drawn), for which the RP-LC retention time was found to be 601 s. For `Cc1cccc(C(=O)N2CCC3(C2)C(=O)Nc2ccccc23)c1` (stereo not drawn) the value was 734 s. For `Cc1cccc(-n2c(=O)c3c(cc(C)n3C)n(CC(=O)Nc3ccc(C)c(C)c3)c2=O)c1` the value was 912 s; for `CCc1nnc(-c2nnc(NC3CCCCCC3)c3ccccc23)o1`, 821 s. Then `CCOc1ccc(S(=O)(=O)N2CCC(C(=O)Nc3ccc(C(N)=O)cc3)CC2)cc1C`, with 782 s. The molecule `O=C(NC1CCCCC1)c1ccc2ncnc(N3CCCCC3)c2c1` came in with an RP-LC retention time of 658 s. For `Cc1ccc(NC(=O)N2CCCC(C)(C(=O)NCc3ccccc3C)C2)c(Cl)c1` (stereo not drawn) the value was 984 s; for `CCC(=O)N1CCc2cc(C(=O)NCCC3=CCCCC3)ccc21`, 891 s; for `O=C(c1ccc(F)cc1)N1CCN(c2nnc3ccccn23)CC1`, 613 s.

`COc1ccc(-c2nnc(COc3cccc(NC(=O)C4CCC4)c3)o2)cc1`: the RP-LC retention time came to 901 s. As for `O=S(=O)(c1cccc(Br)c1)N1CCc2nc(-c3ccccc3)ncc2C1`, the RP-LC retention time was found to be 1130 s. For `CCc1ccc(NC(=O)Cn2nc(C(=O)N3CCOCC3)c3ccccc32)cc1` the value was 822 s; for `Cc1ccn2c(Nc3ccc4c(c3)OCCO4)c(-c3ccc(Cl)cc3)nc2c1`, 717 s.

`O=C(NCCC1CCN(C(=O)Nc2ccccc2F)CC1)c1ccco1` came in with an RP-LC retention time of 1170 s.

With `CC(=O)Nc1nc(N2CCC(C(=O)NCc3cccnc3)CC2)sc1C(=O)N1CCCC1`, the RP-LC retention time came out at 581 s. For `O=C(Cn1cccc(-c2nc(-c3ccc(F)cc3)no2)c1=O)Nc1ccc(F)c(Cl)c1` the value was 960 s; for `O=C(NC1CCCC1)C1CCN(c2cncnc2N2CCCCC2)CC1`, 641 s. Then `Cc1cc(C)cc(Nc2ncccc2S(N)(=O)=O)c1`, with 898 s; and `CCOc1ccccc1NC(=O)Cn1nc2cc(C)nc(-c3ccccc3)n2c1=O`, with 838 s; and `O=C(CCc1c[nH]c2ccccc12)N1CC(n2cc(COCC3CC3)nn2)C1`, with 719 s. Then `Cc1ccn2c(NC(=O)c3ccc(Cl)c([N+](=O)[O-])c3)c(-c3ccccc3)nc2c1`, with 700 s.
